Data set [1] is described as follows: Metabolic stability in human liver microsome assessed as half life. The data set is classed as ADME, microsomes. In general terms: Liver microsomes are vesicles of endoplasmic reticulum, rich in cytochrome P450 enzymes.
A short description of data set [2]: Metabolic stability in human liver microsome assessed as intrinsic clearance. Particulars: microsomes. The data set is classed as ADME.
The subject of data set [3] is CAL-27. The data set can be described thus: cells. Conditions: Homo sapiens, CAL-27, 72 h.
A further data set can be described thus: cells. Particulars: Homo sapiens, Cal27CisR, 72 h.
In data set [4] the test system is Plasmodium falciparum. As to the kind of experiment: microbe, parasite or virus in culture. Conditions: 3D7, 72 h.
Data set [5] concerns Plasmodium falciparum. As to the kind of experiment: microbe, parasite or virus in culture. Conditions: Dd2, 72 h.
In another data set the target is Histone deacetylase 1 (Homo sapiens, UniProt Q13547). The data set can be described thus: Inhibition of human HDAC1 using ZMAL(Z-Lys(Ac)-AMC as substrate preincubated for 60 mins followed by substrate addition and measured after 90 mins by microplate reader analysis.
Sequence of Histone deacetylase 1 (Q13547 whole entry): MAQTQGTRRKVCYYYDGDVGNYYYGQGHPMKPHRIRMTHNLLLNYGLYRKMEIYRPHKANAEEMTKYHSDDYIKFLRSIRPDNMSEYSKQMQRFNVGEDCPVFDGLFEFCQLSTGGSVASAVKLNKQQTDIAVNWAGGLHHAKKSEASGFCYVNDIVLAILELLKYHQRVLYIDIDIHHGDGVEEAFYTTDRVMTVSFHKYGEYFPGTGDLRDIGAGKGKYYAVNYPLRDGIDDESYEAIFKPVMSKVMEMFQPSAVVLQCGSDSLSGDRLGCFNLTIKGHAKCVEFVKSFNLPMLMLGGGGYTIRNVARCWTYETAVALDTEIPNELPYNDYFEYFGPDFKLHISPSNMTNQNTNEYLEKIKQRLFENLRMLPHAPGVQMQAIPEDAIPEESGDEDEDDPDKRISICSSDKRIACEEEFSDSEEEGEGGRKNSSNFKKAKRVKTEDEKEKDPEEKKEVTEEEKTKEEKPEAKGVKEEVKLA
For a further data set, the target named is Histone deacetylase 3 (Homo sapiens, UniProt O15379). As to the kind of experiment: Inhibition of human HDAC3 using ZMAL(Z-Lys(Ac)-AMC as substrate preincubated for 60 mins followed by substrate addition and measured after 90 mins by microplate reader analysis.
Sequence of Histone deacetylase 3 (O15379 whole entry): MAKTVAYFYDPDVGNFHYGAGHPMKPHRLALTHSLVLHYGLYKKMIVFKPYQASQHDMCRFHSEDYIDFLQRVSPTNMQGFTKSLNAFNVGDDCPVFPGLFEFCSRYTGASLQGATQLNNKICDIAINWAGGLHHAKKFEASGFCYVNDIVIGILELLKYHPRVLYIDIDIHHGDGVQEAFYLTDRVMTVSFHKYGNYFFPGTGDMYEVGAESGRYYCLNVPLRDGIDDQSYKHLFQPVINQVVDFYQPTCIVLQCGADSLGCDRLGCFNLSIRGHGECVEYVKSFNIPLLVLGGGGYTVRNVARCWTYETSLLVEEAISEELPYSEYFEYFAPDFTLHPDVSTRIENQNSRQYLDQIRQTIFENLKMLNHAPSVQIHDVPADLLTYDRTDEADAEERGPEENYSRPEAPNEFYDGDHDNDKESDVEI
Data set [6] deals with T1, Protein deacetylase HDAC6 (Homo sapiens, UniProt Q9UBN7).
T1 sequence (Q9UBN7 whole entry): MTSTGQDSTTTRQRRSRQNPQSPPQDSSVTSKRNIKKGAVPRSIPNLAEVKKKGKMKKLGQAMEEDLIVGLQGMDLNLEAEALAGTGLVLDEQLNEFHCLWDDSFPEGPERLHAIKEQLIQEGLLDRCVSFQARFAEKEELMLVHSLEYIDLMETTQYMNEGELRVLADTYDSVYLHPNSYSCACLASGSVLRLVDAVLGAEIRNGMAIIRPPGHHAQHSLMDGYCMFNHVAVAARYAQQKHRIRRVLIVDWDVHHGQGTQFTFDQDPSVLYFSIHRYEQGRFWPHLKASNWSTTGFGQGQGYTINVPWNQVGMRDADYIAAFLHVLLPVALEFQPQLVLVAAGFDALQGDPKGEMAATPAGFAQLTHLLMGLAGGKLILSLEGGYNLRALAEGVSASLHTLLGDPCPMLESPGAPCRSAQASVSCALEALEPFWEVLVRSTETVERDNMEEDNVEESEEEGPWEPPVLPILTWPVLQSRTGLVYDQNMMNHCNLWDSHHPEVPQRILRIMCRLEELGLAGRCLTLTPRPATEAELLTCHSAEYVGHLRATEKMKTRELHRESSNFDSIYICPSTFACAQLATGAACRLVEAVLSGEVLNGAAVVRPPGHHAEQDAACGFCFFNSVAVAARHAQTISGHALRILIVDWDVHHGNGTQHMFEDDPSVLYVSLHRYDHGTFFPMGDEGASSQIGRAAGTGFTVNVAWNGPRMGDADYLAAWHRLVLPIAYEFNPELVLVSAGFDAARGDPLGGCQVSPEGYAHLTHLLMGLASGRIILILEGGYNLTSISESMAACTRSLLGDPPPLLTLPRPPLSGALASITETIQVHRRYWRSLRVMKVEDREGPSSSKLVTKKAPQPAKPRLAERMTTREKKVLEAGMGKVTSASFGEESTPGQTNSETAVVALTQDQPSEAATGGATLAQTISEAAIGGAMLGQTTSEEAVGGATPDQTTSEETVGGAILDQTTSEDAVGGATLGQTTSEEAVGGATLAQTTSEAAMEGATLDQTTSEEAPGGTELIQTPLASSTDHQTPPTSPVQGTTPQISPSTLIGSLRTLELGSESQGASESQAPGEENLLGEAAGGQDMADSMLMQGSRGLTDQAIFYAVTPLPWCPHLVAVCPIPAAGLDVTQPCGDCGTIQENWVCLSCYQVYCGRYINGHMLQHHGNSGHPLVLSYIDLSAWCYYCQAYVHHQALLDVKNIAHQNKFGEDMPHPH
The data set can be described thus: Inhibition of human HDAC6 using ZMAL(Z-Lys(Ac)-AMC as substrate preincubated for 15 mins followed by substrate addition and measured after 90 mins by microplate reader analysis.

In the next data set the test system is A2780. As to the kind of experiment: Cytotoxicity against human A2780 cells assessed as cell viability incubated for 72 hrs by MTS assay. The data set is classed as functional, cell-based. Particulars: A2780, 72 h.
The test system of another data set is A2780cisR. As to the kind of experiment: Cytotoxicity against human A2780 cisR cells assessed as cell viability up to 100 uM incubated for 72 hrs by MTS assay. The data set is classed as functional, cell-based. (Formazan colour is commonly taken as a measure of viable cells.)
The subject of data set [7] is CAL-27. As to the kind of experiment: Cytotoxicity against human CAL-27 cells assessed as cell viability incubated for 72 hrs by MTS assay. In kind it is functional, cell-based. Particulars: CAL-27, 72 h.
Data set [8] in a line: Cytotoxicity against human Cal27CisR cells assessed as cell viability incubated for 72 hrs by MTS assay. The data set is classed as functional, cell-based.

Molecules are shown by their SMILES. Active and inactive are the calls of the source.

The term half-life denotes the time needed for the level to fall by half in the phase considered. Regarding `CN(C)c1ccc(C(=O)N(CC(=O)NCc2ccccc2)Cc2ccc(C(=O)Nc3ccccc3N)cc2)cc1`, the half-life in [1] (liver microsomes) is 17.5 min. In [2], the CLH was determined as 79.4 µL/min/mg.
What is called IC50 is the concentration at which inhibition is half-maximal. With `CC(=O)SCC(=O)Nc1ccc(CN(CC(=O)NCc2ccccc2)C(=O)c2ccc(N(C)C)cc2)cc1`, the IC50 in the data set with CAL-27 [3], in “cells”, in the data set with Plasmodium falciparum [4] and in the data set on Plasmodium falciparum [5] was above 100 µM each time.
With `CCCNNC(=O)c1ccc(CN(CC(=O)NCc2ccccc2)C(=O)c2ccc(N(C)C)cc2)cc1`, the t1/2 in [1] (microsomes) turned out to be 15.04 min. For the same molecule, the CLH in data set [2] was 92.2 µL/min/mg.
For `CSc1ccccc1C(=O)NCCCCCN(CC(=O)NCc1ccccc1)C(=O)c1ccc(N(C)C)cc1`, the IC50 against Histone deacetylase 1 is above 10 µM; against Histone deacetylase 3 it was above 10 µM; in [6], above 10 µM; in the data set on CAL-27 [3] it was 63.7 µM; in “cells”, 55 µM; in the data set with Plasmodium falciparum [5] it was 37.6 µM.
Regarding `CSc1ccccc1C(=O)Nc1ccc(CN(CC(=O)NCc2ccccc2)C(=O)c2ccc(N(C)C)cc2)cc1`, the IC50 on Histone deacetylase 1 was above 10 µM; at Histone deacetylase 3, above 10 µM; in data set [6], above 10 µM; in the data set with CAL-27 [3] it was above 100 µM; in “cells” it was above 100 µM; with Plasmodium falciparum [4], above 100 µM.
In the case of `CN(C)c1ccc(C(=O)N(CCCCCCNC(=O)c2ccccc2O)CC(=O)NCc2ccccc2)cc1`, the IC50 was above 10 µM at Histone deacetylase 1, above 10 µM in data set [6] and above 100 µM in “cells”.
As for `CSc1ccccc1C(=O)NCCCCCCCN(CC(=O)NCc1ccccc1)C(=O)c1ccc(N(C)C)cc1`, the IC50 on Histone deacetylase 1 is above 10 µM; against Histone deacetylase 3 it was above 10 µM; in [6] it was above 10 µM; with CAL-27 [3], 70.9 µM; in “cells”, above 100 µM; in the data set on Plasmodium falciparum [4], 34.9 µM. This molecule gave an IC50 in the data set with Plasmodium falciparum [5] of 23 µM.
Regarding `CN(C)c1ccc(C(=O)N(CC(=O)NCc2ccccc2)Cc2ccc(-c3nnc(C(F)(F)F)o3)cc2)cc1`, the IC50 is above 10 µM against Histone deacetylase 1; above 10 µM in [6]; above 100 µM in the data set with CAL-27 [3]; above 100 µM in the data set “cells”; 34.2 µM in the data set with Plasmodium falciparum [4]; 36.8 µM in the data set with Plasmodium falciparum [5].
For `CN(C)c1ccc(C(=O)N(CCCCCC(=O)NCCSSCCNC(=O)CCCCCN(CC(=O)NCc2ccccc2)C(=O)c2ccc(N(C)C)cc2)CC(=O)NCc2ccccc2)cc1`, the IC50 is 7.1 µM against Histone deacetylase 1; above 10 µM in data set [6]; 98.7 µM with CAL-27 [3]; above 100 µM in “cells”; 11.7 µM with Plasmodium falciparum [4]; above 100 µM with Plasmodium falciparum [5].
For the molecule `CSc1ccccc1C(=O)NCCCCCCN(CC(=O)NCc1ccccc1)C(=O)c1ccc(N(C)C)cc1`, the IC50 against Histone deacetylase 1 was above 10 µM; on Histone deacetylase 3, above 10 µM; in [6], above 10 µM; in the data set with CAL-27 [3], 68.9 µM; in “cells”, 65.6 µM; in the data set on Plasmodium falciparum [4], 8.97 µM. Also, it took 6.66 µM to reach half-maximal inhibition with Plasmodium falciparum [5] (IC50).
Take `CSc1ccccc1NC(=O)CCCCCN(CC(=O)NCc1ccccc1)C(=O)c1ccc(N(C)C)cc1`: the IC50 was above 10 µM on Histone deacetylase 1; above 10 µM against Histone deacetylase 3; above 10 µM in [6]; 79.4 µM in the data set on CAL-27 [3]; 61.3 µM in the data set “cells”; 56.9 µM in the data set with Plasmodium falciparum [4]. In the data set on Plasmodium falciparum [5], this molecule showed an IC50 of 28.7 µM.
In the case of `CC(=O)SCC(=O)NCCCCCCN(CC(=O)NCc1ccccc1)C(=O)c1ccc(N(C)C)cc1`, the IC50 in the data set with CAL-27 [3] is 33.4 µM; in “cells” it was 28.8 µM; in the data set with Plasmodium falciparum [4], above 100 µM; with Plasmodium falciparum [5] it was 85.1 µM.
On to `CN(C)c1ccc(C(=O)N(CCCCCC(=O)O)CC(=O)NCc2ccccc2)cc1`, for which the IC50 against Histone deacetylase 1 was above 10 µM; in data set [6], above 10 µM; in the data set with CAL-27 [3], above 100 µM; in the data set “cells”, above 100 µM; in the data set on Plasmodium falciparum [4] it was above 100 µM; in the data set on Plasmodium falciparum [5] it was above 100 µM.
With `CNC(=O)CCCCCN(CC(=O)NCc1ccccc1)C(=O)c1ccc(N(C)C)cc1`, the IC50 was above 10 µM on Histone deacetylase 1; above 10 µM in [6]; above 100 µM in the data set on CAL-27 [3]; above 100 µM in “cells”; above 100 µM in the data set with Plasmodium falciparum [4]; above 100 µM in the data set with Plasmodium falciparum [5].
With `CN(C)c1ccc(C(=O)N(CC(=O)NCc2ccccc2)Cc2ccc(C(=O)NCCSSCCNC(=O)c3ccc(CN(CC(=O)NCc4ccccc4)C(=O)c4ccc(N(C)C)cc4)cc3)cc2)cc1`, the IC50 against Histone deacetylase 1 was 4.54 µM; in data set [6] it was above 10 µM; in the data set with CAL-27 [3] it was above 100 µM; in “cells”, above 100 µM; in the data set on Plasmodium falciparum [4], above 100 µM; with Plasmodium falciparum [5], above 100 µM.
Regarding `CN(C)c1ccc(C(=O)N(CC(=O)NCc2ccccc2)Cc2ccc(C(=O)O)cc2)cc1`, the IC50 at Histone deacetylase 1 is 13.8 µM; in [6], above 10 µM; in the data set with CAL-27 [3] it was 74.3 µM; in “cells”, above 100 µM; in the data set on Plasmodium falciparum [4], above 100 µM; with Plasmodium falciparum [5] it was above 100 µM.
On to `CN(C)c1ccc(C(=O)N(CC(=O)NCc2ccccc2)Cc2ccc(-c3nnc(C(F)F)o3)cc2)cc1`, for which the IC50 is above 10 µM at Histone deacetylase 1; above 10 µM in [6]; above 100 µM in the data set with CAL-27 [3]; above 100 µM in the data set “cells”; 18.1 µM with Plasmodium falciparum [4]; 23.7 µM with Plasmodium falciparum [5].
Take `Nc1cc(F)ccc1NC(=O)/C=C/c1cnn(C/C=C/c2ccccc2)c1`: the IC50 in the data set with A2780 stood at 12.9 µM; in the data set on CAL-27 [7], 43.1 µM; in [8] it was 49.4 µM. In addition, the outcome with A2780cisR was inactive.

Values taken from ChEMBL document CHEMBL6153132 (J Med Chem, 2025).
